Tests used:
SK-OV-3 [1] = test: cells; format: functional; conditions: Homo sapiens, time 72 hrs
4T1 [2] = test: cells; format: functional; conditions: Mus musculus, time 72 hrs
HCT-116 [3] = test: cells; format: functional; conditions: Homo sapiens, time 72 hrs
B16-F10 [4] = test: cells; format: functional; conditions: Mus musculus, time 72 hrs
K562 [5] = test: cells; format: functional; conditions: Homo sapiens, time 72 hrs
4T1 [6] = test: Antiproliferative activity against mouse 4T1 cells incubated for 72 hrs by MTT assay; format: functional, cell-based; conditions: 4T1, 72 h
SK-OV-3 [7] = test: Antiproliferative activity against human SK-OV-3 cells incubated for 72 hrs by MTT assay; format: functional, cell-based; conditions: SK-OV-3, 72 h
HCT-116 [8] = test: Antiproliferative activity against human HCT-116 cells incubated for 72 hrs by MTT assay; format: functional, cell-based; conditions: HCT-116, 72 h
B16-F10 [9] = test: Antiproliferative activity against mouse B16-F10 cells incubated for 72 hrs by MTT assay; format: functional, cell-based; conditions: B16-F10, 72 h
K562 [10] = test: Antiproliferative activity against human K562 cells incubated for 72 hrs by CCK8 assay; format: functional, cell-based; conditions: K562, 72 h
[11] = Antiproliferative activity against human HK-2 cells incubated for 72 hrs by MTT assay
Histone deacetylase 1 = Histone deacetylase 1 (Homo sapiens, UniProt Q13547); test: Inhibition of HDAC1 (unknown origin)
Histone deacetylase 3 = Histone deacetylase 3 (Homo sapiens, UniProt O15379); test: Inhibition of HDAC3 (unknown origin)
[12] = target: T1, Protein deacetylase HDAC6 (Homo sapiens, UniProt Q9UBN7); test: Inhibition of HDAC6 (unknown origin)
T1 sequence (Q9UBN7 whole entry): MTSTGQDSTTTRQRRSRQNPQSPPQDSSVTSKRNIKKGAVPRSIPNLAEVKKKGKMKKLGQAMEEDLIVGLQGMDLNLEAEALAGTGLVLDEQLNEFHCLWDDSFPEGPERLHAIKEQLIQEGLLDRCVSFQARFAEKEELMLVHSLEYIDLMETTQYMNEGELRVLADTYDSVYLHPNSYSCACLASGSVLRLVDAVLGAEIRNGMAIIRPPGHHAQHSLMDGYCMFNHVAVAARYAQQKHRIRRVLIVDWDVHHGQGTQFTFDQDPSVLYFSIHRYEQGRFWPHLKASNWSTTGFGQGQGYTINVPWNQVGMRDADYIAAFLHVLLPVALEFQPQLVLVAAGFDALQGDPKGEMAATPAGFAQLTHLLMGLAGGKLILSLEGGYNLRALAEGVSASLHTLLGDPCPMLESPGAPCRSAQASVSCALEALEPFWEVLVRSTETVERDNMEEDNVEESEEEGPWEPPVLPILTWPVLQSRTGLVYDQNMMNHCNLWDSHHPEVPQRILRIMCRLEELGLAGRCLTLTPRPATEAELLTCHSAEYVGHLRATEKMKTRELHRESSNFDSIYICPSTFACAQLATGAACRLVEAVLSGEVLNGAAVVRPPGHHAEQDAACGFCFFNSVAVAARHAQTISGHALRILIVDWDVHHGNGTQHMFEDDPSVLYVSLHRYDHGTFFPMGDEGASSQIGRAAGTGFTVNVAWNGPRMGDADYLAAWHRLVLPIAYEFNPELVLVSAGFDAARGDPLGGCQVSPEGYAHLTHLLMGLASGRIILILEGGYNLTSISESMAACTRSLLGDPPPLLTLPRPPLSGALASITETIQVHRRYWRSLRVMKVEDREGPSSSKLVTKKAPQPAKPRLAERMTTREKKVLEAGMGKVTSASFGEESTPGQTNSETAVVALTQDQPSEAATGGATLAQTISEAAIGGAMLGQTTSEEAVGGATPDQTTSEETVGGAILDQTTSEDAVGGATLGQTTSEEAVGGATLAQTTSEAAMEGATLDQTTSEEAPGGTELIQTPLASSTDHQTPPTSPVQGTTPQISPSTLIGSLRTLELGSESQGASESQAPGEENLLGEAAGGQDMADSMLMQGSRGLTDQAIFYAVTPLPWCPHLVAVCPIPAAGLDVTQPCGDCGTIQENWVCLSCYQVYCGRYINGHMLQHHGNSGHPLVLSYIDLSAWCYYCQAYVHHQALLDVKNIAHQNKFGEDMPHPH

Histone deacetylase 8 = target: T2, Histone deacetylase 8 (Homo sapiens, UniProt Q9BY41); test: Inhibition of HDAC8 (unknown origin)
T2 sequence (Q9BY41 whole entry): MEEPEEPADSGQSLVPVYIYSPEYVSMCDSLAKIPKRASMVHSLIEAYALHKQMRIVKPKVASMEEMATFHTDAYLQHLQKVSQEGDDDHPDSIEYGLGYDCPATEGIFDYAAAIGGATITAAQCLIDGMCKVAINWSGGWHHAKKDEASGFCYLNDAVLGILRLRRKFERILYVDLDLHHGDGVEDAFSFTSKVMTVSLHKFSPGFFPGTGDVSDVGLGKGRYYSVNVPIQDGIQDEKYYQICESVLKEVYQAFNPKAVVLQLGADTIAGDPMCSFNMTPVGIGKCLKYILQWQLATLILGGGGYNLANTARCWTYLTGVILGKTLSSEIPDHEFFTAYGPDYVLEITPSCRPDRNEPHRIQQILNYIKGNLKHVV

Histone deacetylase 1, sequence (Q13547 whole entry): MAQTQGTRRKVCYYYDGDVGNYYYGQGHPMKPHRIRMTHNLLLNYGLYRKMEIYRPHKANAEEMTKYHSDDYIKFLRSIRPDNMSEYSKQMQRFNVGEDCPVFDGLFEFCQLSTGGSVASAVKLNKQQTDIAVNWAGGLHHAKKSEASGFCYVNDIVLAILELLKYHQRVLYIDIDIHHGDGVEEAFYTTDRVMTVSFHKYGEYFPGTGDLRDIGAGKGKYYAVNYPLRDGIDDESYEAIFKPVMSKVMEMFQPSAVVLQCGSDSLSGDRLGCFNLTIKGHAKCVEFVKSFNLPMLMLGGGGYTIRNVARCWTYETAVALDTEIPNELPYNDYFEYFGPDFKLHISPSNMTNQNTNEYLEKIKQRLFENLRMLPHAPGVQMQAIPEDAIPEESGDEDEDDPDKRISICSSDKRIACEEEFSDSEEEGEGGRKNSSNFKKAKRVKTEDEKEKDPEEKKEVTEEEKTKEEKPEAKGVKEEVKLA
Histone deacetylase 3, sequence (O15379 whole entry): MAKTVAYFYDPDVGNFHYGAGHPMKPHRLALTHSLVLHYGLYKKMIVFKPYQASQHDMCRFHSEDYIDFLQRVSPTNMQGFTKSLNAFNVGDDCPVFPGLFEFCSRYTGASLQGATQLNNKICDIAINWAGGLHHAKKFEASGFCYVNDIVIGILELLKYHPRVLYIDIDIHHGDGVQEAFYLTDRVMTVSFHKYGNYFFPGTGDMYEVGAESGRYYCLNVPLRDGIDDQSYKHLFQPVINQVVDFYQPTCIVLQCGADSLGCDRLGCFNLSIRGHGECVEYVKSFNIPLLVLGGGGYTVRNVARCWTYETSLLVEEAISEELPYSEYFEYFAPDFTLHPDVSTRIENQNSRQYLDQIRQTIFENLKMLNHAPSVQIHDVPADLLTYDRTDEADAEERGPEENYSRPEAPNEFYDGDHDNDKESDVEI

Row | IC50 (4T1 [6]) | IC50 (SK-OV-3 [7]) | IC50 (HCT-116 [8]) | IC50 (B16-F10 [9]) | IC50 (K562 [10]) | IC50 (Histone deacetylase 1) | IC50 (Histone deacetylase 3) | IC50 [12] | IC50 (Histone deacetylase 8) | SMILES | inhibition at 10 µM (SK-OV-3 [1]) | inhibition at 10 µM (4T1 [2]) | inhibition at 10 µM (HCT-116 [3]) | inhibition at 10 µM (B16-F10 [4]) | inhibition at 10 µM (K562 [5]) | IC50 at 72 h [11]
1 |  |  |  |  |  |  |  |  |  | CCCNNC(=O)CCCCCNC(=O)c1cnc(-c2ccc(Cl)cc2)s1 | < 50% | 21.5% | 58.2% | < 50% | < 50% | 
2 |  |  |  |  |  |  |  |  |  | C=CCNNC(=O)CCCCCCNC(=O)c1cnc(-c2ccc(NC(=O)OC(C)(C)C)cc2)s1 | 64.6% | 61.2% | 58.2% | 53.5% | 63.7% | 
3 |  |  |  |  |  |  |  |  |  | CCCCCCCCCNNC(=O)CCCCCCNC(=O)c1cnc(-c2ccc(NC(=O)OC(C)(C)C)cc2)s1 | 45% | < 20% | 59.7% | < 50% | 55.2% | 
4 | 8.02 µM | 5.22 µM | 8.42 µM | 13.1 µM | 6.05 µM | 1.36 µM | 0.97 µM | > 10 µM | > 10 µM | CCCNNC(=O)c1ccc(NC(=O)c2cnc(-c3cc4ccc5cccc6ccc(c3)c4c56)s2)cc1 | 77.5% | < 20% | 69.3% | 61.7% | < 50% | 11.2 µM
5 |  |  |  |  |  |  |  |  |  | CCCNNC(=O)CCCCCNC(=O)c1cnc(-c2c[nH]c3ccccc23)s1 | < 50% | < 20% | 36.5% | < 50% | < 50% | 
6 |  |  |  |  |  |  |  |  |  | CCCNNC(=O)CCCCCNC(=O)c1cnc(-c2ccc(NC(=O)OC(C)(C)C)cc2)s1 | < 50% | 27.1% | 53.6% | < 50% | 68.9% | 
7 | 11.8 µM | 8.66 µM | 1.07 µM | 14.8 µM | 4.2 µM | > 5 µM | 1.88 µM | > 10 µM | > 10 µM | CCCNNC(=O)CCCCCCNC(=O)c1cnc(-c2ccc(Oc3ccccc3)cc2)s1 | 76% | 40.8% | 73.1% | 58% | < 50% | 14.1 µM
8 | 14.4 µM | 12.7 µM | 0.79 µM | 5.31 µM | 8.12 µM | > 5 µM | 3.43 µM | > 10 µM | > 10 µM | CCCNNC(=O)CCCCCCNC(=O)c1cnc(-c2ccc(Br)cc2)s1 | 60.8% | 53% | 59.3% | 50.7% | < 50% | 13.9 µM
9 | 9.82 µM | 5.06 µM | 8.15 µM | 9.36 µM | 1.46 µM | 1.57 µM | 0.42 µM | > 10 µM | > 10 µM | CCCNNC(=O)CCCCCCNC(=O)c1cnc(-c2ccc3[nH]ccc3c2)s1 |  |  |  |  |  | 10.1 µM
10 |  |  |  |  |  |  |  |  |  | CC(C)CNNC(=O)CCCCCCNC(=O)c1cnc(-c2ccc(NC(=O)OC(C)(C)C)cc2)s1 | 39.2% | 23.9% | 59% | 51% | 55.9% | 
11 |  |  |  |  |  |  |  |  |  | CCCNNC(=O)CCCCCCNC(=O)c1cnc(-c2ccc3c(c2)OCO3)s1 | 86.8% | 22.1% | 68.4% | 59.6% | 68.9% | 
12 |  |  |  |  |  |  |  |  |  | CCCNNC(=O)CCCCCNC(=O)c1cnc(-c2ccc(C(F)(F)F)cc2)s1 | 70.9% | 38.9% | < 50% | 59.6% | < 50% | 
13 | 8.82 µM | 8.33 µM | 0.91 µM | 11 µM | 0.79 µM |  |  |  |  | Nc1ccccc1NC(=O)c1ccc(CNC(=O)OCc2cccnc2)cc1 [ENTINOSTAT] | 50.2% | 43.4% | 94.6% | 46.2% | 70.5% | 13.5 µM
14 |  |  |  |  |  |  |  |  |  | CCCNNC(=O)CCCCCCNC(=O)c1cnc(-c2ccc(OC(F)(F)F)c(OC(F)(F)F)c2)s1 | 62.7% | 20.5% | 88.8% | 54.5% | 69.5% | 
15 |  |  |  |  |  |  |  |  |  | CCCNNC(=O)CCCCCNC(=O)c1cnc(-c2ccc(F)cc2F)s1 | < 50% | 21.7% | 62.9% | < 50% | 59.8% | 
16 |  |  |  |  |  |  |  |  |  | CCCNNC(=O)CCCCCNC(=O)c1cnc(-c2ccc3ccccc3c2)s1 | < 50% | < 20% | 58.5% | < 50% | 59.8% | 
17 |  |  |  |  |  |  |  |  |  | CCCNNC(=O)CCCCCCNC(=O)c1cnc(-c2cccc(C)c2)s1 | < 50% | < 20% | 61.7% | < 50% | < 50% | 
18 |  |  |  |  |  |  |  |  |  | CCCNNC(=O)c1ccc(NC(=O)c2cnc(-c3ccc(F)cc3)s2)cc1 | < 50% | < 20% | < 50% | < 50% | 69.6% | 
19 |  |  |  |  |  |  |  |  |  | CCCNNC(=O)CCCCCNC(=O)c1cnc(-c2cccc(OC)c2)s1 | < 50% | < 20% | < 50% | < 50% | < 50% | 
20 |  |  |  |  |  |  |  |  |  | CCCNNC(=O)CCCCCNC(=O)c1cnc(-c2ccc(OC(F)(F)F)cc2)s1 | < 50% | 31.9% | 62.9% | < 50% | 69.5% | 
21 |  |  |  |  |  |  |  |  |  | CCCNNC(=O)CCCCCNC(=O)c1cnc(-c2ccc(Cl)cc2Cl)s1 | < 50% | < 20% | 54% | < 50% | < 50% | 
22 |  |  |  |  |  |  |  |  |  | CCCNNC(=O)CCCCCCNC(=O)c1cnc(-c2c[nH]c3ccccc23)s1 | 53% | 21.8% | 72.7% | < 50% | 67.7% | 
23 |  |  |  |  |  |  |  |  |  | CC(C)=CCCC(C)CNNC(=O)CCCCCCNC(=O)c1cnc(-c2ccc(NC(=O)OC(C)(C)C)cc2)s1 (stereo unspecified) | 57.2% | 40.5% | 58.7% | 66.8% | 53.5% | 
24 |  |  |  |  |  |  |  |  |  | CC(C)(C)OC(=O)Nc1ccc(-c2ncc(C(=O)NCCCCCCC(=O)NNCC3CC3)s2)cc1 | 57.5% | 21.4% | 85.8% | 52.1% | 71.3% | 
25 |  |  |  |  |  |  |  |  |  | CCCNNC(=O)CCCCCNC(=O)c1cnc(-c2cccc3ccccc23)s1 | < 50% | < 20% | 60.6% | < 50% | 67.5% | 
